“And” between values parts separate entries of the source, which are not always exact repeats. Identical values can stand only once. “Also recorded” adds a separate entry of the source.
Assays:
[1] = system: advanced gastrointestinal cancer, including CRC and gastric cancer; experiment: Phase Ib open-label multi-center study, anti-tumor activity (RECIST 1.1); assay type: in vivo, human; parameters: key to Best Response (RECIST 1.1): partial response (PR); stable disease (SD)
Method: (§1) The effects of 2-acetylnaphtho[2,3-b]furan-4,9-dione in combination with FOLFIRI in patients with advanced gastrointestinal cancer, including CRC and gastric cancer, were studied in phase lb open-label, multi-center studies. In one phase lb open label, multi-center clinical study, the safety, tolerability, and preliminary anti-tumor activity of 2-acetylnaphtho[2,3-b]furan-4,9-dione in combination with FOLFIRI, with and without bevacizumab, were assessed in adult patients with advanced gastrointestinal cancer, including CRC and gastric cancer. In addition, the pharmacokinetic profile and the pharmacodynamics (biomarkers) of 2-acetylnaphtho[2,3-b]furan-4,9-dione in combination with FOLFIRI, with and without bevacizumab, were studied, and the recommended phase II dose (RP2D) of 2-acetylnaphtho[2,3-b]furan-4,9-dione and FOLFIRI, with or without bevacizumab, were evaluated.
In total, as of April 2015, 18 patients aged 40-72 were enrolled in the open label, multi-center, phase lb study (see Table 2). These patients were pretreated with an average of >3 prior lines of therapy. Of this group, 10 patients (56%) previously progressed on FOLFIRI.
Of the 17 patients evaluable for response, 8 patients received 2-acetylnaphtho[2,3-b]furan-4,9-dione in combination with FOLFIRI and 9 patients received 2-acetylnaphtho[2,3-b]furan-4,9-dione in combination with FOLFIRI and bevacizumab (see FIG. 7).
(§2) Patients received continuous oral administration of 2-acetylnaphtho[2,3-b]furan-4,9-dione twice daily in 28 day cycles. A FOLFIRI regimen was administered (with or without bevacizumab depending on patient) every 14 days. Specifically, 2-acetylnaphtho[2,3-b]furan-4,9-dione was administered at a dose of 240 mg BID in combination with FOLFIRI (5-FU 400 mg/m^2 bolus with 2400 mg/m^2, irinotecan 180 mg/m^2, and leucovorin 400 mg/m^2 infusion) with or without bevacizumab 5 mg/kg, administered bi-weekly until progression of disease, unacceptable toxicity, or other discontinuation criterion was met.
(§3) Pharmacokinetics and pharmacodynamics were evaluated and objective tumor response was assessed every 8 weeks using Response Evaluation Criteria In Solid Tumors (RECIST 1.1).

[2] = Phase Ib open-label multi-center study, safety and tolerability (adverse events); assay type: in vivo, human; details: 240 mg BID with FOLFIRI, with and without bevacizumab
Method: as §1, §2

[3] = Phase Ib open-label multi-center study, pharmacokinetics; assay type: in vivo, human; details: 240 mg BID with FOLFIRI, with and without bevacizumab
Method: as §1, §3

β-catenin = experiment: Cancer stemness biomarker immunofluorescence in cancer xenograft tumors: β-catenin; assay type: in vivo
Method: (§4) The effects of 2-acetylnaphtho[2,3-b]furan-4,9-dione, a compound of formula (I), on cancer stem cell markers was examined in cancer xenograft models with and without irinotecan. Human cancer cells were subcutaneously implanted into the right flank of 5-7 weeks old female athymic nude mice. When tumor size reached 200 mm^3, animals were treated with 2-acetylnaphtho[2,3-b]furan-4,9-dione, irinotecan, or a combination of 2-acetylnaphtho[2,3-b]furan-4,9-dione and irinotecan. Tumors were harvested after first dosing.
(§5) The harvested tissues were fixed in 3.7% neutral buffered formaldehyde at 4° C. for overnight. The paraffin was embedded, cut to about 5 microns, and affixed onto positively-charged slides. After being baked and de-paraffinized, the slides with tumor or control tissues were incubated in 10 mM Sodium Citrate (pH 6.0) for 10 minutes. After antigen retrieval, slides were probed with primary antibodies P-STAT3 (rabbit, Cell Signaling, 1:100), 13-Catenine (mouse, Santa Cruz, 1:400) at 4° C. overnight, and then Alexa Fluor fluorescent dyes-conjugated secondary antibodies (1:500, Invitrogen). After mounting, the slides with ProLong mounting medium with DAPI (Invitrogen) were examined under a Zeiss fluorescence microscope with 20× objective, and analyzed with Zen software.

p-Stat3 = experiment: Cancer stemness biomarker immunofluorescence in cancer xenograft tumors: p-Stat3; assay type: in vivo, mouse xenograft
Method: as §4, §5

cancer stem cells = experiment: Effect on cancer stem cells with and without 5-fluorouracil; assay type: cell-based; details: FIG. 5
Description: The effects of 2-acetylnaphtho[2,3-b]furan-4,9-dione was examined in cancer stem cells with and without 5-fluorouracil by using methods similar to those disclosed in U.S. pre-grant Publication No. 2012/0252763, Example 3.

[4] = 240 mg BID with FOLFIRI, with and without bevacizumab, 17 evaluable patients
[5] = individual patients, 240 mg BID with chemotherapy backbone FOLFIRI
[6] = individual patients, 240 mg BID with chemotherapy backbone FOLFIRI/Bev
[7] = N = 18, possibly/probably/definitely related
[8] = added to irinotecan, cancer xenograft tumor model, FIG. 6
[9] = alone, human colon cancer xenograft tumor (SW480) in nude mice, FIG. 4
[10] = alone, cancer xenograft tumor model, FIG. 6

CC(=O)c1cc2c(o1)C(=O)c1ccccc1C2=O [2-acetylnaphtho[2,3-b]furan-4,9-dione]
regression in the PR patients (RECIST 1.1) ([1]; 240 mg BID with FOLFIRI, with and without bevacizumab): 44% and 33%
patients with prolonged SD of ≥6 month ([1]; 240 mg BID with FOLFIRI, with and without bevacizumab, 7 of 17 patients): 41%
evaluable patients with prolonged SD (>6 months) ([1]; 240 mg BID with FOLFIRI, with and without bevacizumab, 10 of 17): 59%
evaluable patients with reduced target lesions ([1]; 240 mg BID with FOLFIRI, with and without bevacizumab, 15 of 17, FIG. 7): 88%
number of patients with PR (RECIST 1.1) [1, 4]: 2
number of patients with SD [1, 4]: 14
patients in whom anti-cancer activity was observed ([1]; 240 mg BID with FOLFIRI, with and without bevacizumab, advanced CRC who had failed prior standard chemotherapy): 94%
median progression-free survival (PFS) ([1]; 240 mg BID with FOLFIRI, with and without bevacizumab, evaluable patients): 5.72 months
overall survival of patients with higher expression levels of Stat3 (pStat3) before treatment ([1]; clinical trials, at least in CRC patients): prolonged overall survival
response of a patient with gastric adenocarcinoma with a metastatic lesion in the liver ([1]; combination with FOLFIRI for 8 weeks, failed prior epirubicin, oxaliplatin and Xeloda, FIG. 8): complete response
median survival of pStat3-positive patients compared to pStat3-negative patients ([1]; in combination with FOLFIRI and bevacizumab): longer median survival
Best Response (RECIST 1.1) [1, 5]: SD (4×) and PR (3×)
Comment on course of disease [1, 5]: prolonged stable disease; also recorded: unequivocal progression; also recorded: prolonged stable disease,; also recorded: prolonged SD/PR,
Weeks on Study [1, 5]: 25 weeks and 17 weeks (2×) and 16 weeks and 6 weeks and 3 weeks and 34+ weeks and 32+ weeks and 36 weeks
tumor growth [1, 5]: 8% tumor growth, and 3% tumor growth
tumor regression [1, 5]: 19% tumor regression, and 44% tumor regression and 23% tumor regression and 17 tumor regression, % and 40% tumor regression, and 83% tumor regression,
Best Response (RECIST 1.1) [1, 6]: SD
Comment on course of disease [1, 6]: prolonged stable disease,; also recorded: prolonged stable disease
Weeks on Study [1, 6]: 85+ weeks and 29 weeks and 24 weeks and 18 weeks and 15 weeks and 14 weeks and 25 weeks (2×) and 42 weeks
tumor regression [1, 6]: 25% tumor regression, and 14% tumor regression, and 18% tumor regression, and 4% tumor regression and 10% tumor regression and 21% tumor regression and 1% tumor regression; and 4% tumor regression; and 18% tumor regression;
lesion formations in patients previously exposed to FOLFIRI but experiencing progression ([1]; with bi-weekly FOLFIRI with or without bevacizumab): reduced lesion formations in almost all of the patients
Dehydration Grade 3 related to protocol therapy, number of patients [2]: 1
dose limiting toxicity or new adverse events [2]: No dose limiting toxicity or new adverse events were seen
safety of the combination [2]: safely combined
Abdominal Pain Grade 1, number of subjects [2, 7]: 7
Abdominal Pain Grade 1, percent of total subjects [2, 7]: 38.9%
Abdominal Pain Grade 2, number of subjects [2, 7]: 4
Abdominal Pain Grade 2, percent of total subjects [2, 7]: 22.2%
Abdominal Pain Grade 3, number of subjects [2, 7]: 0
Abdominal Pain Grade 3, percent of total subjects [2, 7]: 0.0%
Alopeda Grade 1, number of subjects [2, 7]: 4
Alopeda Grade 1, percent of total subjects [2, 7]: 22.2%
Alopeda Grade 2, number of subjects [2, 7]: 0
Alopeda Grade 2, percent of total subjects [2, 7]: 0.0%
Alopeda Grade 3, number of subjects [2, 7]: 0
Alopeda Grade 3, percent of total subjects [2, 7]: 0.0%
Anemia Grade 1, number of subjects [2, 7]: 2
Anemia Grade 1, percent of total subjects [2, 7]: 11.1%
Anemia Grade 2, number of subjects [2, 7]: 2
Anemia Grade 2, percent of total subjects [2, 7]: 11.1%
Anemia Grade 3, number of subjects [2, 7]: 0
Anemia Grade 3, percent of total subjects [2, 7]: 0.0%
Anorexia Grade 1, number of subjects [2, 7]: 12
Anorexia Grade 1, percent of total subjects [2, 7]: 66.7%
Anorexia Grade 2, number of subjects [2, 7]: 3
Anorexia Grade 2, percent of total subjects [2, 7]: 16.7%
Anorexia Grade 3, number of subjects [2, 7]: 0
Anorexia Grade 3, percent of total subjects [2, 7]: 0.0%
Diarrhea Grade 1, number of subjects [2, 7]: 18
Diarrhea Grade 1, percent of total subjects [2, 7]: 100.0%
Diarrhea Grade 2, number of subjects [2, 7]: 9
Diarrhea Grade 2, percent of total subjects [2, 7]: 50.0%
Diarrhea Grade 3, number of subjects [2, 7]: 3
Diarrhea Grade 3, percent of total subjects [2, 7]: 16.7%
Dry Mouth Grade 1, number of subjects [2, 7]: 2
Dry Mouth Grade 1, percent of total subjects [2, 7]: 11.1%
Dry Mouth Grade 2, number of subjects [2, 7]: 1
Dry Mouth Grade 2, percent of total subjects [2, 7]: 5.6%
Dry Mouth Grade 3, number of subjects [2, 7]: 0
Dry Mouth Grade 3, percent of total subjects [2, 7]: 0.0%
Dysgeusia Grade 1, number of subjects [2, 7]: 5
Dysgeusia Grade 1, percent of total subjects [2, 7]: 27.8%
Dysgeusia Grade 2, number of subjects [2, 7]: 0
Dysgeusia Grade 2, percent of total subjects [2, 7]: 0.0%
Dysgeusia Grade 3, number of subjects [2, 7]: 0
Dysgeusia Grade 3, percent of total subjects [2, 7]: 0.0%
Fatigue Grade 1, number of subjects [2, 7]: 12
Fatigue Grade 1, percent of total subjects [2, 7]: 66.7%
Fatigue Grade 2, number of subjects [2, 7]: 10
Fatigue Grade 2, percent of total subjects [2, 7]: 55.6%
Fatigue Grade 3, number of subjects [2, 7]: 3
Fatigue Grade 3, percent of total subjects [2, 7]: 16.7%
Flatulence Grade 1, number of subjects [2, 7]: 2
Flatulence Grade 1, percent of total subjects [2, 7]: 11.1%
Flatulence Grade 2, number of subjects [2, 7]: 1
Flatulence Grade 2, percent of total subjects [2, 7]: 5.6%
Flatulence Grade 3, number of subjects [2, 7]: 0
Flatulence Grade 3, percent of total subjects [2, 7]: 0.0%
Nausea Grade 1, number of subjects [2, 7]: 14
Nausea Grade 1, percent of total subjects [2, 7]: 77.8%
Nausea Grade 2, number of subjects [2, 7]: 6
Nausea Grade 2, percent of total subjects [2, 7]: 33.3%
Nausea Grade 3, number of subjects [2, 7]: 0
Nausea Grade 3, percent of total subjects [2, 7]: 0.0%
Neutropenia Grade 1, number of subjects [2, 7]: 3
Neutropenia Grade 1, percent of total subjects [2, 7]: 16.7%
Neutropenia Grade 2, number of subjects [2, 7]: 2
Neutropenia Grade 2, percent of total subjects [2, 7]: 11.1%
Neutropenia Grade 3, number of subjects [2, 7]: 0
Neutropenia Grade 3, percent of total subjects [2, 7]: 0.0%
Platelet Count Grade 1, number of subjects [2, 7]: 2
Platelet Count Grade 1, percent of total subjects [2, 7]: 11.1%
Platelet Count Grade 2, number of subjects [2, 7]: 0
Platelet Count Grade 2, percent of total subjects [2, 7]: 0.0%
Platelet Count Grade 3, number of subjects [2, 7]: 0
Platelet Count Grade 3, percent of total subjects [2, 7]: 0.0%
Urine Discolorization Grade 1, number of subjects [2, 7]: 4
Urine Discolorization Grade 1, percent of total subjects [2, 7]: 22.2%
Urine Discolorization Grade 2, number of subjects [2, 7]: 0
Urine Discolorization Grade 2, percent of total subjects [2, 7]: 0.0%
Urine Discolorization Grade 3, number of subjects [2, 7]: 0
Urine Discolorization Grade 3, percent of total subjects [2, 7]: 0.0%
Vomiting Grade 1, number of subjects [2, 7]: 11
Vomiting Grade 1, percent of total subjects [2, 7]: 61.1%
Vomiting Grade 2, number of subjects [2, 7]: 3
Vomiting Grade 2, percent of total subjects [2, 7]: 16.7%
Vomiting Grade 3, number of subjects [2, 7]: 0
Vomiting Grade 3, percent of total subjects [2, 7]: 0.0%
Weight Loss Grade 1, number of subjects [2, 7]: 2
Weight Loss Grade 1, percent of total subjects [2, 7]: 11.1%
Weight Loss Grade 2, number of subjects [2, 7]: 0
Weight Loss Grade 2, percent of total subjects [2, 7]: 0.0%
Weight Loss Grade 3, number of subjects [2, 7]: 0
Weight Loss Grade 3, percent of total subjects [2, 7]: 0.0%
pharmacokinetic interactions [3]: No significant pharmacokinetic interactions were observed
irinotecan-enhanced staining for stem cell marker β-catenin (β-catenin; [8]): attenuated
expression of β-catenin stem cell marker (β-catenin; [9]): dramatically reduced
irinotecan-enhanced staining for stem cell marker p-Stat3 (p-Stat3; [8]): attenuated
expression of p-Stat3 stem cell marker (p-Stat3; [9]): dramatically reduced
5-fluorouracil-induced increase in the number of cancer stem cells (cancer stem cells; added to 5-fluorouracil): attenuated
effect of the combination on cancer stem cell growth (cancer stem cells; combination with 5-fluorouracil): greater than additive effect

CCc1c2c(nc3ccc(OC(=O)N4CCC(N5CCCCC5)CC4)cc13)-c1cc3c(c(=O)n1C2)COC(=O)[C@]3(O)CC [irinotecan, reference compound]
staining for stem cell marker β-catenin (β-catenin; [10]): enhanced staining
staining for stem cell marker p-Stat3 (p-Stat3; [10]): enhanced staining

— patent US20180250260A1, “METHODS FOR TREATING CANCER” (BOSTON BIOMEDICAL, INC., priority 2015, published 2018)
